# Results from patent US11273166B2, “Methods and compositions for the treatment of obesity” (Monash University, priority 2017, dated 2022).
# Experiments:
# [1] = target: T1, PTP1B in the arcuate nucleus of the hypothalamus (Mus musculus, UniProt P35821); experiment: Celastrol i.p. for 10 days in high fat fed Ptpn1fl/fl mice, rAAV-Cre-eGFP vs rAAV-eGFP in ARC; assay type: in vivo; settings: mice lacking PTP1B in the ARC; 20 μg/ml i.p., 10 consecutive days
# T1 construct: endogenous in cells; host or cells: arcuate nucleus of the hypothalamus of living high fat fed Ptpn1fl/fl mice
# T1 sequence (P35821 1-432): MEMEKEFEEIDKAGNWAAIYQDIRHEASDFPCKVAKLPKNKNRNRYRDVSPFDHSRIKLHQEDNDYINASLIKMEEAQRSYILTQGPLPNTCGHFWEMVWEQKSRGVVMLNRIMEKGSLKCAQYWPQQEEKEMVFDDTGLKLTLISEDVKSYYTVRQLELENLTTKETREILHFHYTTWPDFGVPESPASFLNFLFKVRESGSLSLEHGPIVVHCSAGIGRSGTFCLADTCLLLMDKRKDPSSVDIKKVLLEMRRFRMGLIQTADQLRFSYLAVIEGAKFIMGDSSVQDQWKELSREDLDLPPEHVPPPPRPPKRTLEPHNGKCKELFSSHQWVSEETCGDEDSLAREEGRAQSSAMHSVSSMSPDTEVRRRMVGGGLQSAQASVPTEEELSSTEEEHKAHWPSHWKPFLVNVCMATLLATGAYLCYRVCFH
# Method: FIG. 30. […] 12-week high fat fed Ptpn1^fl/fl male mice were bilateral injected with rAAV-eGFP or rAAV-Cre-eGFP into the arcuate nucleus of the hypothalamus (ARC). Two-week post AAV administration mice received Celastrol (20 μg/ml, i.p.) for 10 consecutive days and effects on a-b) Body weights, c-d) food intake, e-f) adiposity and lean mass (EchoMRI) was determined.
# [2] = target: T2, TCPTP in the arcuate nucleus of the hypothalamus (Mus musculus, UniProt Q06180); experiment: Celastrol i.p. for 10 days in high fat fed Ptpn2fl/fl mice, rAAV-Cre-eGFP vs rAAV-eGFP in ARC; assay type: in vivo; settings: mice lacking TCPTP in the ARC; 20 ug/ml i.p., 10 consecutive days
# T2 construct: endogenous in cells; host or cells: arcuate nucleus of the hypothalamus of living high fat fed Ptpn2fl/fl mice
# T2 sequence (Q06180 1-406): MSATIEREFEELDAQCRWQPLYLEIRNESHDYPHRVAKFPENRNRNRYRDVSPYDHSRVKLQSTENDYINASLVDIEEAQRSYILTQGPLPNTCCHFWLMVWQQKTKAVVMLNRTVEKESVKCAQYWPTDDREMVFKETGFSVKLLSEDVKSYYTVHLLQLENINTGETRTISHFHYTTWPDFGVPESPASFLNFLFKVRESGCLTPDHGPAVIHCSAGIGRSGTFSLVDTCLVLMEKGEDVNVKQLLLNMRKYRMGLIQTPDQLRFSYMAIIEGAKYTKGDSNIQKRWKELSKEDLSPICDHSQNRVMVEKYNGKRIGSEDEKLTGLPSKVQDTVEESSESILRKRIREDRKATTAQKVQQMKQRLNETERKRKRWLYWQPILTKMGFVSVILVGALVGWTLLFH
# Method: 12-week high fat fed Ptpn2^fl/fl male mice were bilateral injected with rAAV-eGFP or rAAV-Cre-eGFP into the arcuate nucleus of the hypothalamus (ARC). Two-week post AAV administration mice received Celastrol (20 ug/ml, i.p.) for 10 consecutive days and effects on a-b) Body weights, b-c) food intake, e-f) adiposity and lean mass (EchoMRI) was determined.
# [3] = tested on: PTP1B and TCPTP in the arcuate nucleus of the hypothalamus; experiment: Celastrol i.p. for 10 days in high fat fed Ptpn1fl/fl: Ptpn2fl/fl mice, rAAV-Cre-eGFP vs rAAV-eGFP in ARC; assay type: in vivo, mouse; settings: mice lacking PTP1B and TCPTP in the ARC; 20 μg/ml i.p., 10 consecutive days
# Method: FIG. 28 The ability of celastrol to promote weight loss in obese mice is abrogated in mice lacking PTP1B and TCPTP in the arcuate nucleus of the hypothalamus. 12-week high fat fed Ptpn1^fl/fl: Ptpn2^fl/fl male mice were bilateral injected with rAAV-eGFP or rAAV-Cre-eGFP into the arcuate nucleus of the hypothalamus (ARC). Two-week post AAV administration mice received Celastrol (20 μg/ml, i.p.) for 10 consecutive days and effects on a) Body weights, b) food intake, c-d) adiposity and lean mass (EchoMRI) was determined
smiles,measurement,setting,value
CC1=C(O)C(=O)C=C2C1=CC=C1[C@@]2(C)CC[C@@]2(C)[C@@H]3C[C@](C)(C(=O)O)CC[C@]3(C)CC[C@]12C [celastrol],ability to promote weight loss in obese mice,[1],partially attenuated
same,ability to promote weight loss in obese mice,[2],partially attenuated
same,ability to promote weight loss in obese mice,[3],abrogated
